Laboratory results reported in PubChem BioAssay (NCI).
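Five compound concentrations were applied to cells in 96-well plates for 48 hours; endpoints were derived by simple linear interpolation of the resulting dose-response curve. TGI denotes the concentration required for complete inhibition of growth.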

Key:
Assay in all cases: NCI tumour cell line growth inhibition, 48 h
[1] = system: LXFL 529 NSCLC
[2] = system: K-562 leukemia
[3] = system: SK-MEL-28 melanoma
[4] = system: SK-OV-3 ovarian
[5] = system: OVCAR-8 ovarian
[6] = system: 786-0 renal
[7] = system: MOLT-4 leukemia
[8] = system: UO-31 renal
[9] = system: SN12C renal
[10] = system: OVCAR-4 ovarian
[11] = system: M14 melanoma
[12] = system: SNB-78 CNS
[13] = system: U251 CNS
[14] = system: RXF 393 renal
[15] = system: SW-620 colon
[16] = system: HOP-62 NSCLC
[17] = system: NCI-H460 lung
[18] = system: SF-295 CNS
[19] = system: A498 renal
[20] = system: RPMI-8226 leukemia
[21] = system: DLD-1 colon
[22] = system: XF 498 CNS
[23] = system: EKVX NSCLC
[24] = system: LOX IMVI melanoma
[25] = system: RXF-631 renal
[26] = system: CCRF-CEM leukemia
[27] = system: SF-268 CNS
[28] = system: KM12 colon
[29] = system: HCC-2998 colon
[30] = system: UACC-257 melanoma
[31] = system: NCI-H23 lung
[32] = system: SK-MEL-2 melanoma
[33] = system: HT29 colon
[34] = system: OVCAR-5 ovarian
[35] = system: TK-10 renal
[36] = system: HL-60(TB) leukemia
[37] = system: A549 NSCLC
[38] = system: HCT-15 colon
[39] = system: UACC-62 melanoma
[40] = system: MALME-3M melanoma
[41] = system: DMS 114 small cell lung
[42] = system: CAKI-1 renal
[43] = system: SK-MEL-5 melanoma
[44] = system: OVCAR-3 ovarian
[45] = system: SF-539 CNS
[46] = system: NCI-H226 lung
[47] = system: ACHN renal
[48] = system: COLO 205 colon
[49] = system: KM20L2 colon
[50] = system: SNB-75 CNS
[51] = system: NCI-H522 lung
[52] = system: IGROV1 ovarian
[53] = system: HOP-92 NSCLC
[54] = system: T-47D breast
[55] = system: BT-549 breast
[56] = system: DU-145 prostate
[57] = system: MCF7 breast
[58] = system: HS 578T breast
[59] = system: MDA-MB-435
[60] = system: SNB-19 CNS
[61] = system: HCT-116 colon
[62] = system: SR leukemia
[63] = system: MDA-N
[64] = system: PC-3 prostate
[65] = system: M19-MEL melanoma
[66] = system: MDA-MB-231 breast
[67] = system: NCI/ADR-RES ovarian
[68] = system: DMS 273 small cell lung

O=C1O[C@@H](c2ccccc2)C[C@H]1CN1CCOCC1 showed a TGI [1] of over 100 µM, a TGI [2] of over 100 µM and a TGI [3] of over 100 µM. The TGI [4] was over 100 µM, the TGI [5] was over 100 µM and the TGI [6] was over 100 µM. The TGI [7] was over 100 µM, the TGI [8] was over 100 µM and the TGI [9] was over 100 µM. The TGI [10] was over 100 µM, the TGI [11] was over 100 µM and the TGI [12] was over 100 µM. The TGI [13] was over 100 µM, the TGI [14] was over 100 µM and the TGI [15] was over 100 µM. For the same compound, the TGI [16] was over 100 µM, the TGI [17] was over 100 µM and the TGI [18] was over 100 µM. The TGI [19] was over 100 µM, the TGI [20] was over 100 µM and the TGI [21] was over 100 µM. The TGI [22] was over 100 µM, the TGI [23] was over 100 µM and the TGI [24] was over 100 µM. It also gave a TGI [25] of over 100 µM, a TGI [26] of over 100 µM and a TGI [27] of over 100 µM. For the same compound, the TGI [28] was over 100 µM, the TGI [29] was over 100 µM and the TGI [30] was over 100 µM. For the same compound, the TGI [31] was 35.4 µM, the TGI [32] was over 100 µM and the TGI [33] was over 100 µM. It also gave a TGI [34] of over 100 µM, a TGI [35] of over 100 µM and a TGI [36] of over 100 µM. The TGI [37] was over 100 µM, the TGI [38] was over 100 µM and the TGI [39] was over 100 µM. For the same compound, the TGI [40] was over 100 µM, the TGI [41] was over 100 µM and the TGI [42] was 41.3 µM. For the same compound, the TGI [43] was over 100 µM, the TGI [44] was over 100 µM and the TGI [45] was over 100 µM. For the same compound, the TGI [46] was over 100 µM, the TGI [47] was over 100 µM and the TGI [48] was over 100 µM. The TGI [49] was over 100 µM, the TGI [50] was over 100 µM and the TGI [51] was over 100 µM. For the same compound, the TGI [52] was over 100 µM and the TGI [53] was over 100 µM.

COC1=CC(=O)c2c(ccc3ncnc(N)c23)C1=O was tested, and the TGI [1] was 3.2 µM, the TGI [2] was 1.58 µM and the TGI [3] was 4.94 µM. It also gave a TGI [4] of 16.3 µM, a TGI [5] of 7.59 µM and a TGI [6] of 3.35 µM. The TGI [7] was 1.5 µM, the TGI [8] was 5.09 µM and the TGI [9] was 3.42 µM. For the same compound, the TGI [10] was 1.28 µM, the TGI [11] was 3.38 µM and the TGI [12] was 4.89 µM. For the same compound, the TGI [13] was 3.39 µM, the TGI [14] was 3.3 µM and the TGI [15] was 4.03 µM. It also gave a TGI [54] of 3.42 µM, a TGI [16] of 6.54 µM and a TGI [17] of 12.6 µM. The TGI [18] was 6.76 µM, the TGI [19] was 3.9 µM and the TGI [20] was 3.62 µM. It also gave a TGI [55] of 3.2 µM, a TGI [56] of 3.34 µM and a TGI [21] of 4.44 µM. The TGI [23] was 4.03 µM, the TGI [24] was 2.68 µM and the TGI [25] was 16.4 µM. It also gave a TGI [26] of 1.95 µM, a TGI [27] of 6.72 µM and a TGI [28] of 11.3 µM. The TGI [57] was 4.12 µM, the TGI [29] was 15.1 µM and the TGI [58] was 7.52 µM. For the same compound, the TGI [30] was 3.69 µM, the TGI [59] was 0.646 µM and the TGI [60] was 5.47 µM. It also gave a TGI [31] of 3.76 µM, a TGI [32] of 7.08 µM and a TGI [61] of 3.33 µM. It also gave a TGI [33] of 4.44 µM, a TGI [34] of 3.81 µM and a TGI [35] of 8.75 µM. For the same compound, the TGI [36] was 1.49 µM, the TGI [62] was 0.631 µM and the TGI [37] was 8.75 µM. For the same compound, the TGI [38] was 4.13 µM, the TGI [63] was 0.889 µM and the TGI [39] was 3.42 µM. For the same compound, the TGI [40] was 5.43 µM, the TGI [41] was 3.43 µM and the TGI [42] was 3.27 µM. For the same compound, the TGI [43] was 3.12 µM, the TGI [44] was 3.03 µM and the TGI [45] was 3.41 µM. It also gave a TGI [64] of 6.53 µM, a TGI [65] of 3.14 µM and a TGI [46] of 4.6 µM. It also gave a TGI [47] of 3.16 µM, a TGI [48] of 6.77 µM and a TGI [49] of 34.7 µM. For the same compound, the TGI [66] was 4.8 µM, the TGI [50] was 6.62 µM and the TGI [51] was 5.62 µM. The TGI [52] was 3.41 µM, the TGI [53] was 4 µM and the TGI [67] was 6.39 µM. The TGI [68] was 10.7 µM.
